These results are taken from patent US11466005B2, “Tricyclic compounds” (JACOBIO PHARMACEUTICALS CO., LTD., priority 2018, dated 2022).

The structures appear in SMILES notation.

For one assay, the target named is BRD4(BD1) (Homo sapiens (Human), UniProt O60885). Nature of the assay: BRD4(BD1) biochemical binding assay (HTRF). The settings on record: biotinylated H4 derived acetylated peptide. Here is the method:
1. BRD4(BD1) Binding Assays
The BRD4(BD1) biochemical binding assay was performed by Sundia MediTech Co. Ltd. in 384-well white plate (OptiPlate-384, PerkinElmer) using HTRF technology.
Briefly, 20 nL of compounds were transferred to the 384-well plate by Echo® 550 liquid handler (Labcyte, USA), then 5 μL of BRD4(BD1) (Reaction Biology Company, RD-11-157) solution or the assay buffer was added to each well. After incubating at RT for 15 min, 5 μL of the biotinylated H4 derived acetylated peptide (synthesized by GL Biochem (Shanghai) Ltd) and 10 μL of the detection solution (Cisbio Assay) were added to each well. After incubating for 1 h at RT, the HTRF signal was measure at 615 nm and 665 nm using the EnVision Multilabel Plate Reader (PerkinElmer, USA). Results were analyzed with a two-wavelength signal ratio: intensity (665 nm)/intensity (615 nm). The inhibition percentage in the presence of the compound was calculated according to the equation, Percent inhibition=(Max−Signal)/(Max−Min)*100%. Fit the data in GraphPad Prism V5.0 software (San Diego, Calif.) to obtain IC50 values with nonlinear regression analysis using equation, Y=Bottom+(Top−Bottom)/(1+10^((Log IC50−X)×HillSlope), where Y stands for inhibition percentage and X stands for compound concentration.

For a further assay, the system named is MV-4-11 cells. Nature of the assay: MV-4-11 cell proliferation assay (MTS). Type of assay: cell-based. The note with it: Homo sapiens, MV4-11, 72 h, 3 days culture. Here is the method: 2. Cell Proliferation Assay
MV-4-11 cell proliferation analysis was conducted by the MIS (3-(4,5-dimethylthiazol-2-yl)-5-(3-carboxymethoxyphenyl)-2-(4-sulfophenyl)-2H-tetrazolium, inner salt) assay. Briefly, MV-4-11 cells will be cultured in IMDM (Iscove's Modified Dubecco's Medium) medium supplemented with 10% (v/v) FBS (fetal bovine serum), under the temperature of 37° C., […] and 95% humidity. The cells will be harvested respectively during the logarithmic growth period and counted with hemocytometer. The cell viability is over […] by trypan blue exclusion. Adjust MV-4-11 cells concentrations to 1.2×10^5 cells/mL with complete medium. Add 100 μL cell suspensions to 96-well plates (triplicates for each cell concentration), the final cell densities are 1.2×10^4 cells/well. The next day, dissolve the test compound with DMSO as stock solution. Dispense 5 μL of the stock solution in 1 mL culture media and add 25 μL drug media into 96-well plates. After serially diluting with culture media, the final concentration of the compound will be 0, 0.03, 0.1, 0.3, 1, 3, 10, 30, 100 nM. The plates will be cultured for 3 days, then measured by means of MTS assay. Add PMS (phenazinium methosulfate) solution to MITS solution (1:20) immediately before addition to the culture plate containing cells. Pipet 20 μL of the combined MTS/PMS Solution into each well of the 96 well assay plate containing 100 μL of cells in culture medium. Incubate the plate for 1-4 hours at 37° C. in a humidified, 5% CO2 atmosphere. Record the absorbance at 490 nm using a microplate spectrophotometer (Envision®, PeikinElmer). Fit the data using GraphPad 5.0 and obtain IC50 values.

A word on the IC50: it is the point on the concentration scale where inhibition reaches its midpoint. A lower IC50 goes with inhibition by little substance. Consider `Cc1nnn(C)c1-c1cnc2c3c(c(C(C)(C)O)nn3C)n(C(CCC(F)(F)F)c3cocn3)c2c1` (stereo not drawn) [Compound 10, 2-(6-(1,4-dimethyl-1H-1,2,3-triazol-5-yl)-1-methyl-4-(4,4,4-trifluoro-1-(oxazol-4-yl)butyl)-1,4-dihydropyrazolo[3′,4′:4,5]pyrrolo[3,2-b]pyridin-3-yl)propan-2-ol], for which the IC50 at BRD4(BD1) was 2.2 nM; in the assay on MV-4-11 cells it was 34 nM.
For `Cc1cccnc1C(CCC(F)(F)F)n1c2cc(-c3c(C)nnn3C)cnc2c2c1c(C(C)(C)O)nn2C` (stereo not drawn) [Compound 11, 2-(6-(1,4-dimethyl-1H-1,2,3-triazol-5-yl)-1-methyl-4-(4,4,4-trifluoro-1-(3-methylpyridin-2-yl)butyl)-1,4-dihydropyrazolo[3′,4′:4,5]pyrrolo[3,2-b]pyridin-3-yl)propan-2-ol] the same measures were 1.3 nM and 7.66 nM.
Take `Cc1nc(C(C2CCOCC2)n2c3cc(-c4c(C)nnn4C)cnc3c3c2c(C(C)(C)O)nn3C)co1` (stereo not drawn) [Compound 12, 2-(6-(1,4-Dimethyl-1H-1,2,3-triazol-5-yl)-1-methyl-4-((2-methyloxazol-4-yl)(tetrahydro-2H-pyran-4-yl)methyl)-1,4-dihydropyrazolo[3′,4′:4,5]pyrrolo[3,2-b]pyridin-3-yl)propan-2-ol]: the 50% inhibitory concentration (IC50) on BRD4(BD1) was 1.6 nM; in the assay with MV-4-11 cells, 10.5 nM.
For `Cc1nnn(C)c1-c1cnc2c3[nH]nc(C(C)(C)O)c3n([C@H](c3ncccc3F)C3CCOCC3)c2c1` [Compound 13, (S)-2-(6-(1,4-Dimethyl-1H-1,2,3-triazol-5-yl)-4-((3-fluoropyridin-2-yl)(tetrahydro-2H-pyran-4-yl)methyl)-1,4-dihydropyrazolo[3′,4′:4,5]pyrrolo[3,2-b]pyridin-3-yl)propan-2-ol] the same measures were 0.4 nM and 1.15 nM.
The like results for `Cc1nnn(C)c1-c1cnc2c3c(c(C(=O)N(C)C)nn3C)n(C(c3ccccc3)C3CCOCC3)c2c1` (stereo not drawn) [Compound 15, 6-(1,4-Dimethyl-1H-1,2,3-triazol-5-yl)-N,N,1-trimethyl-4-(phenyl(tetrahydro-2H-pyran-4-yl)methyl)-1,4-dihydropyrazolo[3′,4′:4,5]pyrrolo[3,2-b]pyridine-3-carboxamide] were, in that order, 0.61 nM and 25.1 nM.
For `Cc1nnn(C)c1-c1cnc2c3c(c(C(N)=O)nn3C)n(C(c3ccccc3)C3CCOCC3)c2c1` (stereo not drawn) [Compound 16, 6-(1,4-Dimethyl-1H-1,2,3-triazol-5-yl)-1-methyl-4-(phenyl(tetrahydro-2H-pyran-4-yl)methyl)-1,4-dihydropyrazolo[3′,4′:4,5]pyrrolo[3,2-b]pyridine-3-carboxamide] the same measures were 0.3 nM and 3.6 nM.
With `CNC(=O)c1nn(C)c2c3ncc(-c4c(C)nnn4C)cc3n(C(c3ccccc3)C3CCOCC3)c12` (stereo not drawn) [Compound 17, 6-(1,4-dimethyl-1H-1,2,3-triazol-5-yl)-N,1-dimethyl-4-(phenyl(tetrahydro-2H-pyran-4-yl)methyl)-1,4-dihydropyrazolo[3′,4′:4,5]pyrrolo[3,2-b]pyridine-3-carboxamide], the IC50 on BRD4(BD1) came out at 0.55 nM; in the assay with MV-4-11 cells it was 12.7 nM.
The like results for `Cc1nnn(C)c1-c1cnc2c3c(c(C(C)(C)N)nn3C)n(C(c3ccccc3)C3CCOCC3)c2c1` (stereo not drawn) [Compound 18, 2-(6-(1,4-Dimethyl-1H-1,2,3-triazol-5-yl)-1-methyl-4-(phenyl(tetrahydro-2H-pyran-4-yl)methyl)-1,4-dihydropyrazolo[3′,4′:4,5]pyrrolo[3,2-b]pyridin-3-yl)propan-2-amine] were, in that order, 1.1 nM and 3.93 nM.
The like results for `CCC(O)(CC)c1nn(C)c2c3ncc(-c4c(C)nnn4C)cc3n(C(c3ccccc3)C3CCOCC3)c12` (stereo not drawn) [Compound 19, 3-(6-(1,4-Dimethyl-1H-1,2,3-triazol-5-yl)-1-methyl-4-(phenyl(tetrahydro-2H-pyran-4-yl)methyl)-1,4-dihydropyrazolo[3′,4′:4,5]pyrrolo[3,2-b]pyridin-3-yl)pentan-3-ol] were, in that order, 0.79 nM and 7.17 nM.
`COc1cccnc1C(C1CCOCC1)n1c2cc(-c3c(C)nnn3C)cnc2c2c1c(C(C)(C)O)nn2C` (stereo not drawn) [Compound 26, 2-(6-(1,4-Dimethyl-1H-1,2,3-triazol-5-yl)-4-((3-methoxypyridin-2-yl)(tetrahydro-2H-pyran-4-yl)methyl)-1-methyl-1,4-dihydropyrazolo[3′,4′:4,5]pyrrolo[3,2-b]pyridin-3-yl)propan-2-ol]: the IC50 at BRD4(BD1) turned out to be 0.68 nM; in the assay on MV-4-11 cells it was 0.91 nM.
The like results for `CC(=O)Nc1nn(C)c2c3ncc(-c4c(C)nnn4C)cc3n([C@H](c3ccccc3)C3CCOCC3)c12` [Compound 29, (S)—N-(6-(1,4-dimethyl-1H-1,2,3-triazol-5-yl)-1-methyl-4-(phenyl(tetrahydro-2H-pyran-4-yl)methyl)-1,4-dihydropyrazolo[3′,4′:4,5]pyrrolo[3,2-b]pyridin-3-yl)acetamide] were, in that order, 1.9 nM and 24.7 nM.
For `Cc1nnn(C)c1-c1cnc2c3c(c(CN4CCOCC4)nn3C)n(C(c3ccccc3)C3CCOCC3)c2c1` (stereo not drawn) [Compound 34, 4-((6-(1,4-dimethyl-1H-1,2,3-triazol-5-yl)-1-methyl-4-(phenyl(tetrahydro-2H-pyran-4-yl)methyl)-1,4-dihydropyrazolo[3′,4′:4,5]pyrrolo[3,2-b]pyridin-3-yl)methyl)morpholine] the same measures were 0.34 nM and 2.16 nM.
